Read-outs that look alike come from different tables or passages of the source. Blank lines part the entries; values can stand above or below the compound they belong to.
Key:
[1] = test system: trabeculae from the right ventricular free wall of explanted human hearts; test: Tension study: peak contractile force of isolated human right ventricular trabeculae in a muscle bath; details: 37° C., 1.0 Hz field stimulation, increasing concentrations
Procedure: Explanted human hearts were obtained from transplant recipients (n=7) and from nonfailing donor hearts (n=1). After excision, hearts were placed immediately into ice cold Tyrode's solution and aerated with 95% O2 and 5% CO2. Trabeculae between 1-3 mm in width and 7-10 mm in length were excised from the right ventricular free wall. Subsequently trabeculae were mounted in a multi-chamber muscle bath in oxygenated Tyrode's solution at 37° C. The trabeculae were placed under 1 gram of resting tension and a field stimulation of 1.0 Hz. […] Peak contractile forces were recorded at 10 minute intervals for a total of 1½ hours. Following experimentation, trabeculae were frozen in liquid N2.

[2] = cited from earlier work
[3] = oral, cited from earlier work
[4] = target: T1, PDE-III isolated from human platelets (Homo sapiens, UniProt Q14432); test: PDE-III inhibition assay, [3H]cAMP substrate, [3H]Adenosine quantified; type: biochemical; details: triplicate at three concentrations over log scale, semi-quantitative
T1 construct: PDE-III isolated from human platelets; from tissue; host or cells: human platelets
Procedure: Enoximone Sulfoxide enantiomer was tested for its ability to inhibit the action of PDE-III isolated from human platelets. The substrate was [^3H]cAMP+cAMP, which is converted by PDE-III to [^3H]Adenosine and then [^3H]Adenosine can be quantified.

[5] = test system: PDE-III; details: cited from earlier work
[6] = test system: men who suffer from ED of psychogenic or organic etiology; details: clinical studies; cited from earlier work

T1 sequence (Q14432 whole entry): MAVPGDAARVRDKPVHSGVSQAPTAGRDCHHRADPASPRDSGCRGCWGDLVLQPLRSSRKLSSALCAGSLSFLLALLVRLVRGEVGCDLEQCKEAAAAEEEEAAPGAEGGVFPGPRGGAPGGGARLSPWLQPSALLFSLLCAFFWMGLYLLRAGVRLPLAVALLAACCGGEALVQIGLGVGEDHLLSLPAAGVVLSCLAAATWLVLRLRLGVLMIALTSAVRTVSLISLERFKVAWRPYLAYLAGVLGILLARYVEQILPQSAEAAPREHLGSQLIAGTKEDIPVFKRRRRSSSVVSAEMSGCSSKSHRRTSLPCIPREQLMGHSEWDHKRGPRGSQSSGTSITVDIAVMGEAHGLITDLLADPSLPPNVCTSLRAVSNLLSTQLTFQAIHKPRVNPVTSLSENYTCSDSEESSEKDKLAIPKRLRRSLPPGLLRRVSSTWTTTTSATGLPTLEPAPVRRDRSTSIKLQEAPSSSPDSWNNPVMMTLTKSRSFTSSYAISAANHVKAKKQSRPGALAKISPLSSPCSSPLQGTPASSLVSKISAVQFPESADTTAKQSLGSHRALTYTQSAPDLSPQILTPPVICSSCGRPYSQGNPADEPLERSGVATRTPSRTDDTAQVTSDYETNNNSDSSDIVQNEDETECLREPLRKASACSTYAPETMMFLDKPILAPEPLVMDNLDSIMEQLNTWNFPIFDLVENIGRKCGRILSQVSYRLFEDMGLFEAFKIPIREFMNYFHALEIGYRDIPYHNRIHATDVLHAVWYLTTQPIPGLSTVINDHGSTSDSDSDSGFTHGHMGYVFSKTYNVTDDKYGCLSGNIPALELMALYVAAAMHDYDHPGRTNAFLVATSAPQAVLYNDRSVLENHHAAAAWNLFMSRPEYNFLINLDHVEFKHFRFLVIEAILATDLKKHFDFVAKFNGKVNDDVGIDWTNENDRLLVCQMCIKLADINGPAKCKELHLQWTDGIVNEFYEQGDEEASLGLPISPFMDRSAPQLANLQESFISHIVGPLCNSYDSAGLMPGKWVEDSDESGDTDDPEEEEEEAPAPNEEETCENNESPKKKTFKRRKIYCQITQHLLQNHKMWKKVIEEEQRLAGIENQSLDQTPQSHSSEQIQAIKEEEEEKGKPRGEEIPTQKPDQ

SMILES: CC(C)NCC(O)c1ccc(O)c(O)c1 (stereo not drawn) [Isoproterenol]
- peak contractile force (net, T=0 value subtracted) [1]: > 1000 mg of tension

SMILES: CSc1ccc(C(=O)c2[nH]c(=O)[nH]c2C)cc1 [Enoximone, 1,3-Dihydro-4-methyl-5-[4-(methylthio)benzoyl]-2H-imidazol-2-one]
- mean clearance ([2]; patients with cardiac failure): about 10 ml/min/kg
- mean half-life ([2]; patients with cardiac failure): 6 h
- Bioavailability ([2]; single oral dose of 3 mg/kg): about 55%
- average steady-state plasma concentration ([3]; 50 mg every 8 hours): 115 ± 40 ng/mL
- average steady-state plasma concentration ([3]; 100 mg every 8 hours): 190 ± 78 ng/mL
- peak contractile force (net, T=0 value subtracted) [1]: 575 mg of tension

- IC50 [4]: 147 µM
SMILES: Cc1[nH]c(=O)[nH]c1C(=O)c1ccc([S@+](C)[O-])cc1 [(S)-(−)-enantiomer, 1,3-Dihydro-4-methyl-5-[(4-methylsulfinyl)-benzoyl]-2H-imidazol-2-one hydrate]
- peak contractile force (net, T=0 value subtracted) [1]: 550 mg of tension

SMILES: CCCc1nn(C)c2c(=O)[nH]c(-c3cc(S(=O)(=O)N4CCN(C)CC4)ccc3OCC)nc12 [sildenafil, 5-[2-ethoxy-5-(4-methylpiperazin-1-ylsulphonyl)phenyl]-1-methyl-3-n-propyl-6,7-dihydro-1H-pyrazolo[4,3-d]pyrimidin-7-one]
- inhibition of PDE-III [5]: negligible inhibition
- men with improved sexual function [6]: about 70%

SMILES: Cc1[nH]c(=O)[nH]c1C(=O)c1ccc([S+](C)[O-])cc1.O (single isomer, unassigned) [(R)-(+)-enantiomer, 1,3-Dihydro-4-methyl-5-[(4-methylsulfinyl)-benzoyl]-2H-imidazol-2-one hydrate]
- peak contractile force (net, T=0 value subtracted) [1]: 175 mg of tension

Source: patent US20060025463A1, “Enoximone sulfoxide enantiomers and their use in the treatment of PDE-III mediated diseases” (priority 2004, published 2006)
